In article PMC8330742, “New benzothieno[2,3-c]pyridines as non-steroidal CYP17 inhibitors: design, synthesis, anticancer screening, apoptosis induction, and in silico ADME profile studies” (Journal of Enzyme Inhibition and Medicinal Chemistry, 2021):

Columns and labels:
[1] = test system: CCRF-CEM; test: NCI-60 SRB screen; format: cell-based; settings: Homo sapiens, single dose 10^−5 M, read-out: Growth inhibition (%)
[2] = test system: HL-60(TB); test: NCI-60 SRB screen; format: cell-based, human; settings: Homo sapiens; HL-60 (TB); single dose 10^−5 M; read-out: Growth inhibition (%)
[3] = test system: K-562; test: NCI-60 SRB screen; format: cell-based, human; settings: Homo sapiens, K562; K-562; single dose 10^−5 M; read-out: Growth inhibition (%)
[4] = test system: MOLT-4; test: NCI-60 SRB screen; format: cell-based; settings: Homo sapiens; MOLT-4; single dose 10^−5 M; read-out: Growth inhibition (%)
[5] = test system: SR; test: NCI-60 SRB screen; format: cell-based; settings: Homo sapiens, single dose 10^−5 M, read-out: Growth inhibition (%)
[6] = test system: A549/ATCC; test: NCI-60 SRB screen; format: cell-based, human; settings: Homo sapiens, single dose 10^−5 M, read-out: Growth inhibition (%)
[7] = test system: EKVX; test: NCI-60 SRB screen; format: cell-based, human; settings: Homo sapiens, single dose 10^−5 M, read-out: Growth inhibition (%)
[8] = test system: HOP-62; test: NCI-60 SRB screen; format: cell-based, human; settings: Homo sapiens; HOP-62; single dose 10^−5 M; read-out: Growth inhibition (%)
[9] = test system: HOP-92; test: NCI-60 SRB screen; format: cell-based, human; settings: Homo sapiens; HOP-92; single dose 10^−5 M; read-out: Growth inhibition (%)
[10] = test system: NCI-H226; test: NCI-60 SRB screen; format: cell-based, human; settings: Homo sapiens; NCI-H226; single dose 10^−5 M; read-out: Growth inhibition (%)
[11] = test system: NCI-H23; test: NCI-60 SRB screen; format: cell-based, human; settings: Homo sapiens; NCI-H23; single dose 10^−5 M; read-out: Growth inhibition (%)
[12] = test system: NCI-H322M; test: NCI-60 SRB screen; format: cell-based, human; settings: Homo sapiens, single dose 10^−5 M, read-out: Growth inhibition (%)
[13] = test system: NCI-H460; test: NCI-60 SRB screen; format: cell-based, human; settings: Homo sapiens; NCI-H460; single dose 10^−5 M; read-out: Growth inhibition (%)
[14] = test system: NCI-H522; test: NCI-60 SRB screen; format: cell-based, human; settings: Homo sapiens; NCI-H522; single dose 10^−5 M; read-out: Growth inhibition (%)
[15] = test system: COLO 205; test: NCI-60 SRB screen; format: cell-based, human; settings: Homo sapiens; COLO 205; single dose 10^−5 M; read-out: Growth inhibition (%)
[16] = test system: HCC-2998; test: NCI-60 SRB screen; format: cell-based, human; settings: Homo sapiens; HCC-2998; single dose 10^−5 M; read-out: Growth inhibition (%)
[17] = test system: HCT-116; test: NCI-60 SRB screen; format: cell-based, human; settings: Homo sapiens; HCT-116; single dose 10^−5 M; read-out: Growth inhibition (%)
[18] = test system: HCT-15; test: NCI-60 SRB screen; format: cell-based, human; settings: Homo sapiens; HCT-15; single dose 10^−5 M; read-out: Growth inhibition (%)
[19] = test system: HT-29; test: NCI-60 SRB screen; format: cell-based; settings: Homo sapiens; HT-29; single dose 10^−5 M; read-out: Growth inhibition (%)
[20] = test system: KM12; test: NCI-60 SRB screen; format: cell-based, human; settings: Homo sapiens; KM12; single dose 10^−5 M; read-out: Growth inhibition (%)
[21] = test system: SW-620; test: NCI-60 SRB screen; format: cell-based; settings: Homo sapiens; SW-620; single dose 10^−5 M; read-out: Growth inhibition (%)
[22] = test system: SF-268; test: NCI-60 SRB screen; format: cell-based, human; settings: Homo sapiens; SF-268; single dose 10^−5 M; read-out: Growth inhibition (%)
[23] = test system: SF-295; test: NCI-60 SRB screen; format: cell-based, human; settings: Homo sapiens; SF-295; single dose 10^−5 M; read-out: Growth inhibition (%)
[24] = test system: LOX IMVI; test: NCI-60 SRB screen; format: cell-based, human; settings: Homo sapiens, single dose 10^−5 M, read-out: Growth inhibition (%)
[25] = test system: MALME-3M; test: NCI-60 SRB screen; format: cell-based, human; settings: Homo sapiens, single dose 10^−5 M, read-out: Growth inhibition (%)
[26] = test system: M14; test: NCI-60 SRB screen; format: cell-based, human; settings: Homo sapiens; M14; single dose 10^−5 M; read-out: Growth inhibition (%)
[27] = test system: MDA-MB-435; test: NCI-60 SRB screen; format: cell-based; settings: Homo sapiens, MDA-MB-435, read-out: Growth inhibition (%)
[28] = test system: SK-MEL-2; test: NCI-60 SRB screen; format: cell-based, human; settings: Homo sapiens; SK-MEL-2; single dose 10^−5 M; read-out: Growth inhibition (%)
[29] = test system: SK-MEL-28; test: NCI-60 SRB screen; format: cell-based; settings: Homo sapiens; SK-MEL-28; single dose 10^−5 M; read-out: Growth inhibition (%)
[30] = test system: SK-MEL-5; test: NCI-60 SRB screen; format: cell-based, human; settings: Homo sapiens; SK-MEL-5; single dose 10^−5 M; read-out: Growth inhibition (%)
[31] = test system: UACC-62; test: NCI-60 SRB screen; format: cell-based, human; settings: Homo sapiens; UACC-62; single dose 10^−5 M; read-out: Growth inhibition (%)
[32] = test system: IGROV1; test: NCI-60 SRB screen; format: cell-based, human; settings: Homo sapiens, IGROV-1; IGROV1; single dose 10^−5 M; read-out: Growth inhibition (%)
[33] = test system: OVCAR-3; test: NCI-60 SRB screen; format: cell-based, human; settings: Homo sapiens; OVCAR-3; single dose 10^−5 M; read-out: Growth inhibition (%)
[34] = test system: OVCAR-4; test: NCI-60 SRB screen; format: cell-based, human; settings: Homo sapiens; OVCAR-4; single dose 10^−5 M; read-out: Growth inhibition (%)
[35] = test system: OVCAR-8; test: NCI-60 SRB screen; format: cell-based, human; settings: Homo sapiens; OVCAR-8; single dose 10^−5 M; read-out: Growth inhibition (%)
[36] = test system: NCI/ADR-RES; test: NCI-60 SRB screen; format: cell-based, human; settings: Homo sapiens, single dose 10^−5 M, read-out: Growth inhibition (%)
[37] = test system: SK-OV-3; test: NCI-60 SRB screen; format: cell-based, human; settings: Homo sapiens; SK-OV-3; single dose 10^−5 M; read-out: Growth inhibition (%)
[38] = test system: ACHN; test: NCI-60 SRB screen; format: cell-based; settings: Homo sapiens, single dose 10^−5 M, read-out: Growth inhibition (%)
[39] = test system: CAKI-1; test: NCI-60 SRB screen; format: cell-based, human; settings: Homo sapiens; CAKI-1; single dose 10^−5 M; read-out: Growth inhibition (%)
[40] = test system: RXF 393; test: NCI-60 SRB screen; format: cell-based, human; settings: Homo sapiens; RXF 393; single dose 10^−5 M; read-out: Growth inhibition (%)
[41] = test system: SN12C; test: NCI-60 SRB screen; format: cell-based, human; settings: Homo sapiens, SN12C; SN 12 C; single dose 10^−5 M; read-out: Growth inhibition (%)
[42] = test system: TK-10; test: NCI-60 SRB screen; format: cell-based, human; settings: Homo sapiens; TK-10; single dose 10^−5 M; read-out: Growth inhibition (%)
[43] = test system: UO-31; test: NCI-60 SRB screen; format: cell-based, human; settings: Homo sapiens; UO-31; single dose 10^−5 M; read-out: Growth inhibition (%)
[44] = test system: panel of 60 cancer cell lines; test: NCI-60 SRB screen, mean or range over the panel; format: cell-based, human; settings: Homo sapiens; mean over the cell lines; single dose 10^−5 M; read-out: Mean growth inhibition (%)

SMILES: CCN1CCN(C2C(=O)NC(c3cccc([N+](=O)[O-])c3)c3sc4c(F)cccc4c32)CC1 (stereo not shown) [Compound 6a, 4-(4-Ethylpiperazin-1-yl)-8-fluoro-1-(3-nitrophenyl)-1,2-dihydro[1]benzo thieno[2,3-c]pyridin-3(4H)-one]
- inhibition at 10 µM [1]: -2.46%
- inhibition at 10 µM [2]: -2%
- inhibition at 10 µM [3]: 11%
- inhibition at 10 µM [4]: 9.9%
- inhibition at 10 µM [5]: 8.6%
- inhibition at 10 µM [6]: -7.34%
- inhibition at 10 µM [7]: -2.24%
- inhibition at 10 µM [8]: 8.57%
- inhibition at 10 µM [9]: -1.02%
- inhibition at 10 µM [10]: 10%
- inhibition at 10 µM [11]: -1.88%
- inhibition at 10 µM [12]: 0.49%
- inhibition at 10 µM [13]: 0.82%
- inhibition at 10 µM [14]: 0.67%
- inhibition at 10 µM [15]: -13.8%
- inhibition at 10 µM [16]: -18.1%
- inhibition at 10 µM [17]: 6.68%
- inhibition at 10 µM [18]: -7.17%
- inhibition at 10 µM [19]: -2.32%
- inhibition at 10 µM [20]: -0.94%
- inhibition at 10 µM [21]: 5.15%
- inhibition at 10 µM [22]: 7.67%
- inhibition at 10 µM [23]: -3.39%
- inhibition at 10 µM [24]: -2.53%
- inhibition at 10 µM [25]: -3.44%
- inhibition at 10 µM [26]: -1.65%
- inhibition at 10 µM [27]: -2.64%
- inhibition at 10 µM [28]: -13.3%
- inhibition at 10 µM [29]: -13%
- inhibition at 10 µM [30]: -1.71%
- inhibition at 10 µM [31]: 8.9%
- inhibition at 10 µM [32]: 16.4%
- inhibition at 10 µM [33]: 0.35%
- inhibition at 10 µM [34]: -6.65%
- inhibition at 10 µM [35]: 2.02%
- inhibition at 10 µM [36]: -2.46%
- inhibition at 10 µM [37]: -1.47%
- inhibition at 10 µM [38]: 6.81%
- inhibition at 10 µM [39]: 18.4%
- inhibition at 10 µM [40]: -24%
- inhibition at 10 µM [41]: 2.15%
- inhibition at 10 µM [42]: -51.9%
- inhibition at 10 µM [43]: 35.8%
- inhibition at 10 µM [44]: -0.71%

SMILES: O=C1NC(c2cccc([N+](=O)[O-])c2)c2sc3c(F)cccc3c2C1N1CCOCC1 (stereo not shown) [Compound 6b, 8-Fluoro-4-morpholino-1(3-nitrophenyl)-1,2-dihydro[1]benzothieno[2,3-c]pyridin-3(4H)-one]
- inhibition at 10 µM [1]: -0.89%
- inhibition at 10 µM [2]: 3%
- inhibition at 10 µM [3]: 6.63%
- inhibition at 10 µM [4]: 7.9%
- inhibition at 10 µM [5]: 14.4%
- inhibition at 10 µM [6]: -0.83%
- inhibition at 10 µM [7]: 2.98%
- inhibition at 10 µM [8]: 12.7%
- inhibition at 10 µM [9]: 13.3%
- inhibition at 10 µM [10]: 19.4%
- inhibition at 10 µM [11]: 5.78%
- inhibition at 10 µM [12]: -2.43%
- inhibition at 10 µM [13]: 0.21%
- inhibition at 10 µM [14]: 10.4%
- inhibition at 10 µM [15]: -10.9%
- inhibition at 10 µM [16]: -9.62%
- inhibition at 10 µM [17]: 12.5%
- inhibition at 10 µM [18]: -4.99%
- inhibition at 10 µM [19]: 3.1%
- inhibition at 10 µM [20]: 2.35%
- inhibition at 10 µM [21]: 7.48%
- inhibition at 10 µM [22]: 6.1%
- inhibition at 10 µM [23]: 1.1%
- inhibition at 10 µM [24]: -0.6%
- inhibition at 10 µM [25]: 0.18%
- inhibition at 10 µM [26]: -1.23%
- inhibition at 10 µM [27]: -9.63%
- inhibition at 10 µM [28]: -12.7%
- inhibition at 10 µM [29]: -11.5%
- inhibition at 10 µM [30]: 0.57%
- inhibition at 10 µM [31]: 3.55%
- inhibition at 10 µM [32]: 21.5%
- inhibition at 10 µM [33]: 1.9%
- inhibition at 10 µM [34]: 0.3%
- inhibition at 10 µM [35]: 2.6%
- inhibition at 10 µM [36]: 1.78%
- inhibition at 10 µM [37]: 0.4%
- inhibition at 10 µM [38]: 4.34%
- inhibition at 10 µM [39]: 23%
- inhibition at 10 µM [40]: 6.95%
- inhibition at 10 µM [41]: 2.85%
- inhibition at 10 µM [42]: -28.2%
- inhibition at 10 µM [43]: 31.8%
- inhibition at 10 µM [44]: 3.19%
